Reference: EP4592286A1, “MACROCYCLIC NITROGEN-CONTAINING CROWN ETHER COMPOUND AND USE THEREOF AS PROTEIN KINASE INHIBITOR” (Artivila Biopharma, priority 2022, dated 2024)
Converted amounts (≈) assume the structure as drawn.

What was measured:
[1] = target: T1, JAK3 (Homo sapiens, UniProt P52333); experiment: experiment of inhibiting kinase activity (Caliper mobility shift assay), JAK3; assay type: biochemical; conditions: for IC50: kinase activity assay, Table 3
T1 sequence (P52333 1-1124): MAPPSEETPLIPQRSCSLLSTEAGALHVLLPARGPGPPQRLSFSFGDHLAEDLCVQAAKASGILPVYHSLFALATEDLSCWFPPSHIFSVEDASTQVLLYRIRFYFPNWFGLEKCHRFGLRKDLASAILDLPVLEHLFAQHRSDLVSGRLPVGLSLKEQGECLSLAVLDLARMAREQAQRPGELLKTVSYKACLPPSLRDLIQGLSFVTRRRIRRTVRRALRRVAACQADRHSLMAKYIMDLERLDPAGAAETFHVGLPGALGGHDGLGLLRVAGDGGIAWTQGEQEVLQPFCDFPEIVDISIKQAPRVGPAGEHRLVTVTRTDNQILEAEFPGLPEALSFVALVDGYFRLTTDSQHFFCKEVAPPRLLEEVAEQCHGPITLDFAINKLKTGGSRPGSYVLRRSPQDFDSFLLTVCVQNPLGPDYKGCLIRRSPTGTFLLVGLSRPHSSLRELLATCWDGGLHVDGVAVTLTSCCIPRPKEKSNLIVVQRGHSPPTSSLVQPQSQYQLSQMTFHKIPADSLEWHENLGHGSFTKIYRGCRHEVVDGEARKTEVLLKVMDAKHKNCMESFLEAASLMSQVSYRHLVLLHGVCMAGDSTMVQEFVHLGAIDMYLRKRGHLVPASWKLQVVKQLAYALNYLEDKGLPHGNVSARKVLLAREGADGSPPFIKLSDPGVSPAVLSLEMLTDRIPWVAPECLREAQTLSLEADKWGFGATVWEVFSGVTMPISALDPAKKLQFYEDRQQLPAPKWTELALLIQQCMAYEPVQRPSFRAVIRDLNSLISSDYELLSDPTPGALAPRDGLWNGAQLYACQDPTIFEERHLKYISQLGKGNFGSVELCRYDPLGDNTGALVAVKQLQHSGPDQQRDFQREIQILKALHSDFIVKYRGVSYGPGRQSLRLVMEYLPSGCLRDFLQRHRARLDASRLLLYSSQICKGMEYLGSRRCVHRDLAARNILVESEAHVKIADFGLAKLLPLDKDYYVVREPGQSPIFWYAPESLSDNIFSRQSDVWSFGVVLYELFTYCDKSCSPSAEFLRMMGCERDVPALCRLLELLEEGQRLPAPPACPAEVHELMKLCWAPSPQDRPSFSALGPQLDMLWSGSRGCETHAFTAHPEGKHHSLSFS
In short: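 Inhibition is measured as reduced conversion of substrate by the kinase, separated by microfluidic mobility shift after a room-temperature reaction started with ATP/substrate following a 10-min compound preincubation. Test doses are 10 nM, 100 nM, or a 10-point 3-fold series from 10 µM.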

[2] = target: T2, JAK2 (Mus musculus, UniProt Q62120); experiment: JAKs cell activity test: JAK2_pSTAT5 in IL-3-induced BAF3 cells; assay type: cell-based; conditions: pSTAT5, IL-3-induced BAF3 cells
T2 construct: endogenous in cells; host or cells: BAF3
Description: (§1) THP1 cells were collected by centrifugation, resuspended with 1×HBSS, counted and diluted to a certain cell density. They were inoculated in a 384-well plate and cultured in a saturated humidity incubator with 37 °C and 5% CO2. The compound (DMSO final volume of 0.3%) was added to THP1 cells (10 doses in duplicates) and cultured in a saturated humidity incubator with 37 °C and 5% CO2. hIL-4 was added to stimulate cells and cultured in a saturated humidity incubator with 37 °C and 5% CO2. The lysis solution was added and incubated at room temperature. According to the instructions of AlphaLISA SureFire Ultra p-STAT6 detection kit, the lysis solution was transferred to pSTAT6 detection system, and the ALPHA signal was read by PE Envision microplate reader. The inhibition rate Inh%=((DMSO-sample)/(DMSO-background))×100 was calculated. IC50 was obtained by fitting with GraphPad Prism non-linear regression equation, and y=Bottom+(Top-Bottom)/(1+10^((LogIC50-x)×hillslope)), where x was the concentration of the compound and y was the inhibition rate.
(§2) JAK2_pSTAT5 was tesed in IL-3-induced BAF3 cells according to the above steps, and JAK3_pSTAT5 was tested in IL-2-induced CTLL-2 cells (without serum stimulation) according to the above steps.

[3] = target: TYK2 (Homo sapiens, UniProt P29597); experiment: experiment of inhibiting kinase activity, TYK2; assay type: biochemical; conditions: read-out: inhibition rate TYK2; for inhibition at 0.01 µM: at 10 nM; for inhibition at 0.1 µM: at 100 nM
Description: (§3) The inhibition rates of tested compounds on JAK1, JAK2, JAK3, TYK2, CDK7, CDK9, EGFR (T790M) and LRRK2 kinases were measured. The test concentrations of the compounds were 10 nM and 100 nM, and the detection was performed by replicate wells. Alternatively, compounds were 3-fold serial diluted from 10 µM for 10 concentrations in replicate wells.

[4] = target: Wild-type EGFR kinase protein (Homo sapiens, UniProt P00533); experiment: experiment of inhibiting EGFR kinase activity (TR-FRET method); assay type: biochemical
Description: The inhibitory effect of the compounds on EGFR kinase activity was measured by TR-FRET method. The diluted solutions of the compounds were transfered to a 384-well plate (784075, Greiner), the plate was sealed and centrifuged at a speed of 1000 g for 1 minute. Wild-type EGFR kinase protein at 2-fold final concentration was prepared in 1×kinase buffer, 5 µL of wild-type EGFR at 2-fold final concentration was added to 384-well plate, the well plate was centrifuged at 1000 g for 30 seconds, and left at room temperature for 10 minutes. A mixture of 2-fold TK-substrate-biotin (2 µM) and ATP was prepared in 1×kinase buffer, and 5 µL of the mixture of 2×TK-substrate-biotin (2 µM) and ATP was added to start the reaction. The well plate was centrifuged at 1000 g for 30 seconds, sealed and left at room temperature for 40 minutes. […] The fluorescence signal values at 615 nm (Cryptate) and 665 nm (XL665) were detected by using Envision 2104 microplate reader. […] The IC50 was calculated with GraphPad 8.0 and the dose-reponse curve of the compound was plotted as follows: y=Bottom+(Top-Bottom)/(1+10^((logic50-x)×hillslope)), where x was logarithm of inhibitor concentration; and y was % inhibition rate.

[5] = measurement of the solubility of compounds in water and diluted hydrochloric acid; assay type: physicochemical; conditions: thermodynamic from solid
Description: Example 117: measurement of the solubility of compounds in water and diluted hydrochloric acid
The compounds were dissolved in acetonitrile (LCMS pure) and prepared into standard samples having the concentration gradient of 1000 µg/mL, 500 µg/mL, 250 µg/mL, 125 µg/mL, 62.5 µg/mL, and 31.25 µg/mL.
(§4) About 1.0 mg of the powder of the compound to be tested was weighed and added to 0.3 mL of ultrapure water (pH-6), the resulting mixture was shaked thoroughly at room temperature overnight and centrifuged, and the supernatant was taken and diluted 10 times with acetonitrile. The sample was analyzed after mixing evenly.
as §4, with “153.8 µL of 6 M HCl was pipetted, 20 mL of water was added, and mixed evenly to prepare diluted hydrochloric acid solution A (pH-1.5). About” for “About”, “diluted hydrochloric acid solution A,” for “ultrapure water (pH-6),”, “for 1 hour” for “overnight”
The standard sample and the sample to be tested were analyzed by Shimadzu LCMS-2020, where chromatographic column was Skim-psck GIST 5 µm C18 2.1*[…]; mobile phase A was water and mobile phase B was methanol; and flow rate was 0.3 mL/min. The gradient of B was as the following: 0 min: 10%; 0-1.0 min: 10%; 1.0-2.5 min: 95%; 3.0-4.0 min: 95%; 4.0-4.1 min: 10%; 4.1-6.0 min: 10%.
The relationship between the concentration and peak area of the standard sample was ploted into a standard curve, and the concentration of the sample to be tested was calibrated using this standard curve. Compound solubility = concentration of the sample to be tested × 10 [formula]

[6] = target: EGFR (T790M) (Homo sapiens, UniProt P00533, T790M); experiment: experiment of inhibiting kinase activity, EGFR (T790M); assay type: biochemical; conditions: at 10 nM; read-out: inhibition rate EGFR(T790M)
Description: as §3

[7] = target: T3, JAK3 (Mus musculus, UniProt Q62137); experiment: JAKs cell activity test: JAK3_pSTAT5 in IL-2-induced CTLL-2 cells; assay type: cell-based; conditions: pSTAT5, IL-2-induced CTLL-2 cells
T3 construct: endogenous in cells; host or cells: CTLL-2
T3 sequence (Q62137 1-1100): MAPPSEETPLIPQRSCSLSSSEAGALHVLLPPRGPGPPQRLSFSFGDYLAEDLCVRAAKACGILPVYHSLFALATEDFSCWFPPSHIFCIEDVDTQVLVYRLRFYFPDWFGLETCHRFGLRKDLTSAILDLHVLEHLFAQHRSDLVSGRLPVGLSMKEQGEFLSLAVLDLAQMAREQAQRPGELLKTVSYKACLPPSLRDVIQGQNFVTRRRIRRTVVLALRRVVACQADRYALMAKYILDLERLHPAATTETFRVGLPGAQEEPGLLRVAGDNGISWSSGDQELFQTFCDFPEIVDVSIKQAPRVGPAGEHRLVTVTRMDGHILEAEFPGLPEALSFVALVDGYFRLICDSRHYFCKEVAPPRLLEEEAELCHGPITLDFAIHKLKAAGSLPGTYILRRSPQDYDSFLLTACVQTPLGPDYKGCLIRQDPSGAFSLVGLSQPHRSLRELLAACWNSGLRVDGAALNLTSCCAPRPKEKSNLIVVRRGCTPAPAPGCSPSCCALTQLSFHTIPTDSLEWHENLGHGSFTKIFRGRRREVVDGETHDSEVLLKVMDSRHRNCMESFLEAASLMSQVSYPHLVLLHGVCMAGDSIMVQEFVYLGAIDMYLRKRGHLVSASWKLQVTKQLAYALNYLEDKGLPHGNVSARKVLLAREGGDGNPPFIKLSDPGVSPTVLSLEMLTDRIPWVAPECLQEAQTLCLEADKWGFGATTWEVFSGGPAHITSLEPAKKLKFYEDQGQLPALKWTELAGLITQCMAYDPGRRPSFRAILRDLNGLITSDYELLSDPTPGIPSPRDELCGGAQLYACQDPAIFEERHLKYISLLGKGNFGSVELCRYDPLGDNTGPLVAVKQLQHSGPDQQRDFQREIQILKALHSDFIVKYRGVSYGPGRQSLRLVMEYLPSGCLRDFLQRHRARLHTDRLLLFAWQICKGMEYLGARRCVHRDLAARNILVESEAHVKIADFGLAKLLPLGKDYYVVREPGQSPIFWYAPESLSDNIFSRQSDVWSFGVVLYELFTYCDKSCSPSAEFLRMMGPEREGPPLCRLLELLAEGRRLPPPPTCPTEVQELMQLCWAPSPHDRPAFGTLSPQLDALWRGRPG
Description: as §1, §2

TYK2, sequence (P29597 whole entry): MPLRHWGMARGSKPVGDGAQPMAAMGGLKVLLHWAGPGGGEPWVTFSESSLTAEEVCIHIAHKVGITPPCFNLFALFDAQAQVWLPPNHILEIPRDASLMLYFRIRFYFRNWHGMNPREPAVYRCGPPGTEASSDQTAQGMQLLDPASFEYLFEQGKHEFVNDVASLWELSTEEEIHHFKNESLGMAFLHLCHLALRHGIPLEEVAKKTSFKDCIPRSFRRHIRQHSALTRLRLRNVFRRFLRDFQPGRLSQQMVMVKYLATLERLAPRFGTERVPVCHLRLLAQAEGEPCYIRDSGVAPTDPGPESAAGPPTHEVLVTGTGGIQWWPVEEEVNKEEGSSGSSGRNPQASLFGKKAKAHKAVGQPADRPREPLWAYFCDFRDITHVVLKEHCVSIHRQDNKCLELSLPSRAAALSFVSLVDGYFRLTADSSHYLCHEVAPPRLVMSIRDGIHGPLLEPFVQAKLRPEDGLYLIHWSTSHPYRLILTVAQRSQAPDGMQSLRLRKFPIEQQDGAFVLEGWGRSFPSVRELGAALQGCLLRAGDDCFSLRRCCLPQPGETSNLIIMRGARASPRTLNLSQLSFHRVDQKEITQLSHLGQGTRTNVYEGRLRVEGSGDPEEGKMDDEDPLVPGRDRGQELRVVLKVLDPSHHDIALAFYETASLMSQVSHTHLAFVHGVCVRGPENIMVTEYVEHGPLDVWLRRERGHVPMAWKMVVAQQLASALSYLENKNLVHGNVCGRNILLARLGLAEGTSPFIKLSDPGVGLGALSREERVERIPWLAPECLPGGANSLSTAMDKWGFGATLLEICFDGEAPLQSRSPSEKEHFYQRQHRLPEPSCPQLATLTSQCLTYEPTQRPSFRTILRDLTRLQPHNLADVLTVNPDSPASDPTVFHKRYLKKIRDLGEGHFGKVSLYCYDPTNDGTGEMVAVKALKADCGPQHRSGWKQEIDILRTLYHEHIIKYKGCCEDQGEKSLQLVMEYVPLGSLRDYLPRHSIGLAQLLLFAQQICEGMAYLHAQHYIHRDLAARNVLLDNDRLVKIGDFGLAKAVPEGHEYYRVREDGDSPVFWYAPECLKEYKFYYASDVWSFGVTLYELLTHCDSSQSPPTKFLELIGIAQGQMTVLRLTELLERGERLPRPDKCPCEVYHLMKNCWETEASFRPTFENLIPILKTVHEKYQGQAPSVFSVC
Wild-type EGFR kinase protein, sequence (P00533 25-1210): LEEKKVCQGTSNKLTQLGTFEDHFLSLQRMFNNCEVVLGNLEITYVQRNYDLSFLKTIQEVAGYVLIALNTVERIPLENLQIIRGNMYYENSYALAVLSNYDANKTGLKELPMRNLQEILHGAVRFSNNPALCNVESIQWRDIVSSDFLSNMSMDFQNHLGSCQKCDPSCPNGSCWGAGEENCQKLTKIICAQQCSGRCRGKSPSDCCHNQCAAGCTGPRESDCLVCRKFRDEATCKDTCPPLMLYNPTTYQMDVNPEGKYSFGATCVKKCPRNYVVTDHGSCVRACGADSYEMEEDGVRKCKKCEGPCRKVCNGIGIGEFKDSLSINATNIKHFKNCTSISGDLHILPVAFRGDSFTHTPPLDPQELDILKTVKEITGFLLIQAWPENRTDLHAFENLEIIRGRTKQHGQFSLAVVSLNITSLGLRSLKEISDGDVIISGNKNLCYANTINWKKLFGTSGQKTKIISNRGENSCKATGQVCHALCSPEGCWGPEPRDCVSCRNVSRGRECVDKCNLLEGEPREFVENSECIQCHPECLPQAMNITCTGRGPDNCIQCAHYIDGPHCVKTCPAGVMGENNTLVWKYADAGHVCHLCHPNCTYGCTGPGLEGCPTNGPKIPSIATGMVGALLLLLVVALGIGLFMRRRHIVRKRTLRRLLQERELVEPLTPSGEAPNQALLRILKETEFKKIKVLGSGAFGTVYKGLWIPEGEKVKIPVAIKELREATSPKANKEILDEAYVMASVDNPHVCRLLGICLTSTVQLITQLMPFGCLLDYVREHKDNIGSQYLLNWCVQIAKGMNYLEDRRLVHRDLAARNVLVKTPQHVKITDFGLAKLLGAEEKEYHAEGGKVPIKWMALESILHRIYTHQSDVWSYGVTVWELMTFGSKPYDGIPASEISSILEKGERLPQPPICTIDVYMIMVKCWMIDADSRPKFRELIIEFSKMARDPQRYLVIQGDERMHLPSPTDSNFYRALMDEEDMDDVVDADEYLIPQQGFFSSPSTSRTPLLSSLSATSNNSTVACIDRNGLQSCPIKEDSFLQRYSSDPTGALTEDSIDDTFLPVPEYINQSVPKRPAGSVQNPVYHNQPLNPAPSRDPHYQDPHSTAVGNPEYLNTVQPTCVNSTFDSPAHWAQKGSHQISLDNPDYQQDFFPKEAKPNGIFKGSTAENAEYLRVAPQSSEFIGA
T2 sequence (Q62120 whole entry): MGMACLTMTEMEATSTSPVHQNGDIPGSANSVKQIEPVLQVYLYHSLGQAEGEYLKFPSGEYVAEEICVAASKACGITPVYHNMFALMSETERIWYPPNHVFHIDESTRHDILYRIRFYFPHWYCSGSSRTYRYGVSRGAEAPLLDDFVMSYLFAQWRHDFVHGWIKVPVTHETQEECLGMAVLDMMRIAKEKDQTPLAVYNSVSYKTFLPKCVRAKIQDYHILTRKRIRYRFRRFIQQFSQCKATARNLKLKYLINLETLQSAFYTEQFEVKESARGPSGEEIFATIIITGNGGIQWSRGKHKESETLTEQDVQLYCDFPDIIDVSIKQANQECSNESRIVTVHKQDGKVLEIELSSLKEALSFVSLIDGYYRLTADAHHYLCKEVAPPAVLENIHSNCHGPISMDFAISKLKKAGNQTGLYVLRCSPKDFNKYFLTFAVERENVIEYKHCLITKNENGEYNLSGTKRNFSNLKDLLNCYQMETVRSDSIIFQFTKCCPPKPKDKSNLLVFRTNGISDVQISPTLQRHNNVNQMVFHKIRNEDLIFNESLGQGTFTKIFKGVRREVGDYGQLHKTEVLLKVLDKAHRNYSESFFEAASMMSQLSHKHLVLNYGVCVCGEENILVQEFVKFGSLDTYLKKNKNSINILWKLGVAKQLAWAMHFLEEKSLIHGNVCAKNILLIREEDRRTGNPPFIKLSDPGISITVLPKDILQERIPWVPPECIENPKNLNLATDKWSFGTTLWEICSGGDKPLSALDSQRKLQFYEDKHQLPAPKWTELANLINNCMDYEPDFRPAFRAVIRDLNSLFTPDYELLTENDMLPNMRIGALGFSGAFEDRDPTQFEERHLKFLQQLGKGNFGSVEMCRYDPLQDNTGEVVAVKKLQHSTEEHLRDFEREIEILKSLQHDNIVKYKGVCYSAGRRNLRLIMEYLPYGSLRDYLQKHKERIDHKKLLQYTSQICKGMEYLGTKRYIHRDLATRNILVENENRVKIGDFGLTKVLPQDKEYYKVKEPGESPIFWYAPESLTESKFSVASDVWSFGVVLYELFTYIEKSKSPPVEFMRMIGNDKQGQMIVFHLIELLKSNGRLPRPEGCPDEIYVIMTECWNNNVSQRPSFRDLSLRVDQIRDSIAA
EGFR (T790M), sequence (P00533 25-1210 T790M): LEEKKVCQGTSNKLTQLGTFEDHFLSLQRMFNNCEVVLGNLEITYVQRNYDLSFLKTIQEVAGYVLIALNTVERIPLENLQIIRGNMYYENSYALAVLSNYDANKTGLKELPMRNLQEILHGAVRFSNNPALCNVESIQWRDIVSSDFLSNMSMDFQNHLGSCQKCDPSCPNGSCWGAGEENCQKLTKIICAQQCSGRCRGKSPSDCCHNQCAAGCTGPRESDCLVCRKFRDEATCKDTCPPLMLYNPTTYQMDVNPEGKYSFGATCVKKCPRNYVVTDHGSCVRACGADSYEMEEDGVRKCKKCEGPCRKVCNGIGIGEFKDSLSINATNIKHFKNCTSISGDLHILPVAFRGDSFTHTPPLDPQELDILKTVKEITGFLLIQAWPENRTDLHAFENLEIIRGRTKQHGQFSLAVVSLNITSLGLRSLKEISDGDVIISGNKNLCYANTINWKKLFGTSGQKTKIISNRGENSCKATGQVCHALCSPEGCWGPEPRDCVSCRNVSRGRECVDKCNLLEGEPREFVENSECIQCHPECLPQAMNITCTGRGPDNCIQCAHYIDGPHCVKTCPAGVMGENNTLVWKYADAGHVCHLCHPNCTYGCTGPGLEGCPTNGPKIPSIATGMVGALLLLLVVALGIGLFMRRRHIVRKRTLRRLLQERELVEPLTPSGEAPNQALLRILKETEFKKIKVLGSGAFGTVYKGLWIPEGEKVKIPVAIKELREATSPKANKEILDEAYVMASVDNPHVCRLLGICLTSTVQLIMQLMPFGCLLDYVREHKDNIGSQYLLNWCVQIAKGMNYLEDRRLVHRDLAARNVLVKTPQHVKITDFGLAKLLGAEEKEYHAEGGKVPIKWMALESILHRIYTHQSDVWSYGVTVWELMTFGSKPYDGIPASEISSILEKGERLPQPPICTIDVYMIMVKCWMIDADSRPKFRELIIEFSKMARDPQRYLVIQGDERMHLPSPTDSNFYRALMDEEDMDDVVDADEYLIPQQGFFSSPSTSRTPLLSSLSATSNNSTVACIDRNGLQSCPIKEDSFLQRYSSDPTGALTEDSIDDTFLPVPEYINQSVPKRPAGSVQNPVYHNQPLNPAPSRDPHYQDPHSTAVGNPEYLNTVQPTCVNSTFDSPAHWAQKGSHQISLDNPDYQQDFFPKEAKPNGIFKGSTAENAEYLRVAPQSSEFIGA

| Structure (SMILES) | inhibition at 0.01 µM ([1]; at 10 nM, read-out: inhibition rate JAK3) [%] | inhibition at 0.1 µM ([1]; at 100 nM, read-out: inhibition rate JAK3) [%] | IC50 [1] [nM] | EC50 [2] [nM] | inhibition at 0.01 µM [3] [%] | inhibition at 0.1 µM [3] [%] | IC50 [4] [nM] | solubility at 1 h ([5]; simulated gastric fluid, diluted hydrochloric acid solution A (pH-1.5), room temperature, 1 hour) [µg/mL] | solubility ([5]; ultrapure water (pH-6), room temperature overnight) [µg/mL] | inhibition at 0.01 µM [6] [%] | EC50 [7] [nM] |
| --- | --- | --- | --- | --- | --- | --- | --- | --- | --- | --- | --- |
| CN1CCOc2ccc(Nc3nc(-c4cnn(C(CC#N)C5CCCC5)c4)c4cc[nH]c4n3)cc2OCC1 (centres unmarked) [Example 27] | 40 to 79 | > 80 | < 50 | 50 to 500 | 40 to 79 | > 80 | – | – | – | – | – |
| CCS(=O)(=O)N1CC(CC#N)(n2cc(-c3nc(Nc4ccc5c(c4)OCCN(C)CCO5)nc4[nH]ccc34)cn2)C1 [Example 28] | – | – | < 50 | 50 to 500 | > 80 | > 80 | – | – | – | – | – |
| C=CC(=O)Nc1cccc(Nc2nc(Nc3ccc4c(c3)OCCOCCN(C)CCO4)ncc2Cl)c1 [Example 54, N-(3-((5-chloro-2-((7-methyl-2,3,6,7,8,9-hexahydro-5H-benzo[b][1,4,7]trioxa[10]azacyclododecan-13-yl)amino)pyrimidin-4-yl)amino)phenyl)acrylamide] | – | – | – | – | – | – | < 50 | > 3730 | 886 (≈ 1690 µM) | > 80 | 50 to 500 |
| C=CC(=O)Nc1cccc(Nc2nc(Nc3ccc4c(c3)OCCN(C)CCOCCO4)ncc2Cl)c1 [Example 56, N-(3-((5-chloro-2-((7-methyl-2,3,6,7,8,9-hexahydro-5H-benzo[b][1,4,7]trioxa[10]azacyclododecan-12-yl)amino)pyrimidin-4-yl)amino)phenyl)acrylamide] | – | – | – | – | – | – | < 50 | – | – | > 80 | – |
